Data taken from US20100105661A1, “CONDENSED PYRIDINE COMPOUND” (Astellas Pharma Inc., priority 2007, published 2010).

Assays:
human JAK3 kinase domain = biological target: T1, human JAK3 kinase domain (Homo sapiens, UniProt P52333); assay: JAK3 inhibition test; format: biochemical
T1 construct: attached to the N-terminal of the 796-1124 (C-terminal) fragment of the human JAK3 protein; His-tag (N); purchased Carna Biosciences, Inc. (Kobe, Japan); host or cells: baculovirus expression system
Method: The JAK3 inhibition test was performed as described below
Purified human JAK3 kinase domain was purchased from Carna Biosciences, Inc. (Kobe, Japan). This was afforded as described below.
As an assay buffer, 15 mM Tris-HCl pH 7.5 containing 0.01% Tween 20 and 2 mM DTT (dithiothreitol) was used.
After incubation at ambient temperature for one hour, the plate was washed with a cleaning buffer (50 mM Tris-HCl pH 7.5, 150 mM NaCl, 0.02% Tween 20), and a blocking buffer (a cleaning buffer containing 0.1% bovine serum albumin) was added to the plate. After incubation at ambient temperature for 30 minutes, the blocking buffer was removed, and an HRP-PY-20 solution (afforded by diluting HRP-PY-20 solution with the blocking buffer 500 times) was added. After incubation at ambient temperature for 30 minutes, the plate was washed four times, and a TMB substrate solution (Sigma) was added to the plate. After incubation at ambient temperature for 4 minutes, 1M sulfuric acid was added to stop the reaction. Enzyme activity was measured as absorbance at 450 nm.

HERG = HERG (Homo sapiens, UniProt Q12809); assay: HERG assay; conditions: low adverse effect
HERG, sequence (Q12809 whole entry): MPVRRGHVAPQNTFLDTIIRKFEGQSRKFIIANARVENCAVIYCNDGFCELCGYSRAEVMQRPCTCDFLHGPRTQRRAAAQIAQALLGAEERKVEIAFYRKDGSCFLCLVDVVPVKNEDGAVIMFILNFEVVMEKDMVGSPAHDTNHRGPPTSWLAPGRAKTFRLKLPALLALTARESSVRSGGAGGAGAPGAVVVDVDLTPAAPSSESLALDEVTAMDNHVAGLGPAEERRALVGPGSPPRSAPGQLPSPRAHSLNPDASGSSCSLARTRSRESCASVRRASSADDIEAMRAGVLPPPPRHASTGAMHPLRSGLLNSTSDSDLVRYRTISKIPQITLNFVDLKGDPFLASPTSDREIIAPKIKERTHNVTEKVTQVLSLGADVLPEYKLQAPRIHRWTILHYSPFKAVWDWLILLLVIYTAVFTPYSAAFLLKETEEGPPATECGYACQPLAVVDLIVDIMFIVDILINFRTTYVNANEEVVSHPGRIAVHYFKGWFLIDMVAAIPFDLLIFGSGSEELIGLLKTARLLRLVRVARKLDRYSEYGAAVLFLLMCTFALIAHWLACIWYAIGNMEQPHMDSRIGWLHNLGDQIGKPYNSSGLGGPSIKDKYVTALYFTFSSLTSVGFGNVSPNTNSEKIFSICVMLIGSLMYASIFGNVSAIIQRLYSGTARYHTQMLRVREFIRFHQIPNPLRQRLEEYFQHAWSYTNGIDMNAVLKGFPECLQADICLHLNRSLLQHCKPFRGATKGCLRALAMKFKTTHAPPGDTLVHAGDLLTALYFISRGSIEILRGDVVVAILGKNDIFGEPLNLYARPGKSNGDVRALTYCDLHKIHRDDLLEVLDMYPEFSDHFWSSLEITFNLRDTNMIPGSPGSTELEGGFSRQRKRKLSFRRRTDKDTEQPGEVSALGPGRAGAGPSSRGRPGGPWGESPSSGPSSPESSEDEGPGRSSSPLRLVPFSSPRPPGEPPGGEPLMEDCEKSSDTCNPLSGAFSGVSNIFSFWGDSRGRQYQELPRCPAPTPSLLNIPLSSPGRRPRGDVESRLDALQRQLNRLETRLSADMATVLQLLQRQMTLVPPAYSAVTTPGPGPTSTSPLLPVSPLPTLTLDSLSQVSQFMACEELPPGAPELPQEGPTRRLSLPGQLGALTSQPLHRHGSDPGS

[1] = 20 μM ATP in substrate solution, Biotin-Lyn-Substrate-2, one hour at ambient temperature, compounds of the Examples
[2] = reference compounds produced according to the cited publications, compared in the JAK3 test

T1 sequence (P52333 796-1124): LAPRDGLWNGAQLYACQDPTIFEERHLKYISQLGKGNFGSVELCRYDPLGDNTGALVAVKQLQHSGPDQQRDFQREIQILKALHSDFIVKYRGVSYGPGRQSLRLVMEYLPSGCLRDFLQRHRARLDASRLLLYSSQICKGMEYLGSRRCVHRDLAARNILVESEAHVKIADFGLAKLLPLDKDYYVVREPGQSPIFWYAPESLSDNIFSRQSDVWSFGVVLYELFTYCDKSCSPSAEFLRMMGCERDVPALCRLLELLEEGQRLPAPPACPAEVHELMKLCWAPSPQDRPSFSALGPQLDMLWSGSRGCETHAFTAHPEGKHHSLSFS

Compound | IC50 (human JAK3 kinase domain; [1]) [nM] | IC50 (human JAK3 kinase domain; [2]) [nM] | IC50 (HERG) [nM]
N#Cc1ccc(N2CC[C@@H](Nc3c(C(N)=O)cnc4[nH]ccc34)[C@@H](F)C2)nn1 (racemic) [Example 6, 4-{[(3S,4R)-1-(6-cyanopyridazine-3-yl)-3-fluoropiperidine-4-yl]amino}-1H-pyrrolo[2,3-b]pyridine-5-carboxamide and 4-{[(3R,4S)-1-(6-cyanopyridazine-3-yl)-3-fluoropiperidine-4-yl]amino}-1-1H-pyrrolo[2,3-b]pyridine-5-carboxamide] | 0.76 |  | 
CNC(=O)C(=O)Nc1nn([C@H]2CN(c3ccc([N+](=O)[O-])cn3)CC[C@H]2C)c2c1cnc1[nH]ccc12 (racemic) [Example 77] | 4.8 |  | 
C[C@@H]1CCN(c2ccc(C#N)cn2)C[C@@H]1n1[nH]c(=O)c2cnc3[nH]ccc3c21 (racemic) [Example 72] | 1.6 |  | 
C[C@@H]1CCN(C(=O)N2CCC=N2)C[C@@H]1n1c(=O)[nH]c2cnc3[nH]ccc3c21 (racemic) [Example 110] | 10 |  | 
Nc1nn(C2CCCCCC2)c2c1cnc1[nH]ccc12 [Example 12, 1-cycloheptyl-1,6-dihydropyrazolo-[3,4-d]pyrrolo[2,3-b]pyridine-3-amine] | 10 |  | 
N#Cc1ccc(N2CCC(Nc3c(C(N)=O)cnc4[nH]ccc34)CC2)cc1 [Example 58] | 3.4 |  | 
CC[C@@H]1CCCC[C@@H]1n1nc(N)c2cnc3[nH]ccc3c21 [Example 129] | 3.8 |  | 
N#Cc1ccc(N2CC[C@@H](Nc3c(C(N)=O)cnc4[nH]ccc34)[C@@H](F)C2)nc1 [Example 94] | 0.3 |  | 
NC(=O)c1cnc2[nH]ccc2c1N[C@@H]1CCN(c2ccc(C(F)(F)F)nn2)C[C@@H]1F (racemic) [Example 91] | 3.2 |  | 
CS(=O)(=O)N1CCCC(Nc2c(Cl)cnc3[nH]ccc23)C1 (centres unmarked) [Reference compound B, reference compound] |  | 31 | 
C[C@@H]1CN(c2ccc(C#N)cn2)CC[C@@H]1Nc1c(C(N)=O)cnc2[nH]ccc12 (racemic) [Example 65] | 0.78 |  | 
C[C@@H]1CN(c2ccc(C#N)nn2)CC[C@@H]1Nc1c(C(N)=O)cnc2[nH]ccc12 (racemic) [Example 66] | 1 |  | 
C[C@@H]1CCN(S(=O)(=O)c2cccnc2)C[C@@H]1N(C)c1ccnc2[nH]ccc12 [Reference compound A, reference compound] |  | 230 | 
N#Cc1ccc(N2CC[C@@H](Nc3c(C(N)=O)cnc4[nH]ccc34)[C@H](F)C2)nc1 (racemic) [Example 82] | 2.7 |  | 
C[C@H]1CN(c2ccc(C#N)cn2)CC[C@H]1Nc1c(C(N)=O)cnc2[nH]cnc12 (racemic) [Example 49] | 2.2 |  | 
N#Cc1ccc(N2CC[C@@H](Nc3c(C(N)=O)cnc4[nH]ccc34)[C@@H](F)C2)nc1 (racemic) [Example 41] | 1.1 |  | ≥ 100000
C[C@@H]1CCN(C(=O)CC#N)C[C@@H]1n1[nH]c(=O)c2cnc3[nH]ccc3c21 (racemic) [Example 22] | 1.7 |  | 
C[C@@H]1CCN(C(=O)N2C[C@@H](F)C[C@H]2C#N)C[C@@H]1n1c(=O)[nH]c2cnc3[nH]ccc3c21 (mixture of isomers) [Example 2, (2R,4R)-4-fluoro-1-{[(3S,4S)-4-methyl-3-(2-oxo-3,6-dihydroimidazo[4,5-d]pyrrolo[2,3-b]pyridine-1(2H)-yl)-piperidine-1-yl]carbonyl}pyrrolidine-2-carbonitrile and (2R,4R)-4-fluoro-1-{[(3R,4R)-4-methyl-3-(2-oxo-3,6-dihydroimidazo[4,5-d]pyrrolo[2,3-b]pyridine-1(2H)-yl)-piperidine-1-yl]carbonyl}pyrrolidine-2-carbonitrile] | 0.86 |  | 
C[C@@H]1CCN(C(=O)CC#N)C[C@@H]1n1nc(N)c2cnc3[nH]ccc3c21 (racemic) [Example 21] | 0.52 |  | 
